Reference: ChEMBL document CHEMBL4118137, “Design, synthesis and antineoplastic activity of novel hybrids of podophyllotoxin and indirubin against human leukaemia cancer cells as multifunctional anti-MDR agents” (Bioorg Med Chem Lett, 2018)
pIC50: −log10 of the molar value.

How the values were obtained:
K562/VCR = assay: Antiproliferative activity against human K562/VCR cells after 72 hrs by CCK8 assay; format: functional, cell-based
K562 = assay: Antiproliferative activity against human K562 cells after 72 hrs by CCK8 assay; format: functional, cell-based; conditions: K562, 72 h
[1] = Resistance factor, ratio of IC50 for human K562/VCR cells to IC50 for human K562 cells; format: functional

Structure (SMILES)	pIC50 (K562/VCR)	pIC50 (K562)	Ratio IC50 [1]
CC[C@]1(O)C[C@H]2CN(CCc3c([nH]c4ccccc34)[C@@](C(=O)OC)(c3cc4c(cc3OC)N(C=O)[C@H]3[C@@](O)(C(=O)OC)[C@H](OC(C)=O)[C@]5(CC)C=CCN6CC[C@]43[C@@H]65)C2)C1 [VINCRISTINE]	5.32	6.75	26.61
COc1cc([C@@H]2c3cc4c(cc3[C@H](OC(=O)CCCN3C(=O)/C(=C5\Nc6ccccc6C5=O)c5ccccc53)[C@H]3COC(=O)[C@H]23)OCO4)cc(OC)c1OC	5.76	5.75	0.97
COc1cc([C@@H]2c3cc4c(cc3[C@H](OC(=O)CCCCCN3C(=O)/C(=C5\Nc6ccccc6C5=O)c5ccccc53)[C@H]3COC(=O)[C@H]23)OCO4)cc(OC)c1OC	4.07	4.77	5.02
COc1cc([C@@H]2c3cc4c(cc3[C@H](OC(=O)CCN3C(=O)/C(=C5\Nc6ccccc6C5=O)c5ccccc53)[C@H]3COC(=O)[C@H]23)OCO4)cc(OC)c1OC	5.67	5.89	1.64
COc1cc([C@@H]2c3cc4c(cc3[C@@H](O[C@@H]3O[C@@H]5CO[C@@H](C)O[C@H]5[C@H](O)[C@H]3O)[C@H]3COC(=O)[C@H]23)OCO4)cc(OC)c1O [ETOPOSIDE]	4.93	6.12	15.49
